Among the test systems are IGROV-1; NCI-H226; HT-29; SK-MEL-2; EKVX; RXF 393; MDA-N; OVCAR-5; UO-31; SW-620; HCT-15; MDA-MB-231; SF-539; KM12; HL-60; U-251; A549; UACC-257; NCI-H522; OVCAR-4.
What all share (assay): inhibition of tumour cell growth, NCI panel, 48 h

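A five-concentration, 48-hour dose response in 96-well plates underlies each endpoint, interpolated linearly between surrounding concentrations. Here, GI50 denotes the concentration required for 50% inhibition of growth.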 Active and inactive are the calls of the source. Rule as the data show it: active = GI50 up to about 1.1 µM and inactive = higher.

With `COc1cc(N(C)C)c(OC)cc1C=C1C=CC=C1`, the GI50 was > 100 µM (inactive) with IGROV-1; > 100 µM (inactive) in the experiment on NCI-H226; 60.4 µM (inactive) with HT-29; > 100 µM (inactive) with SK-MEL-2; > 100 µM (inactive) in the experiment on EKVX; > 100 µM (inactive) with RXF 393. For the same compound, the GI50 was 44.1 µM (inactive) in the experiment with MDA-N; > 100 µM (inactive) in the experiment on OVCAR-5; > 100 µM (inactive) in the experiment on UO-31; > 100 µM (inactive) with SW-620; greater than 10 µM in the experiment on HCT-15; > 100 µM (inactive) in the experiment on MDA-MB-231. Further, the GI50 was > 100 µM (inactive) in the experiment with SF-539; > 100 µM (inactive) in the experiment on KM12; 36.4 µM (inactive) with HL-60; > 100 µM (inactive) in the experiment on U-251; > 100 µM (inactive) with A549.

Take `Fc1ccc(/C(=N/Cc2ccccc2)N2CCOCC2)cc1`: the GI50 with IGROV-1, with NCI-H226, in the experiment on HT-29, in the experiment with SK-MEL-2, in the experiment on EKVX and in the experiment on RXF 393 was > 100 µM (inactive) throughout. Moreover, the GI50 is > 100 µM (inactive) in the experiment on MDA-N; > 100 µM (inactive) in the experiment with OVCAR-5; 67.5 µM (inactive) with UO-31; > 100 µM (inactive) with SW-620; > 100 µM (inactive) with UACC-257; greater than 100 µM in the experiment with HCT-15. In addition, the GI50 with MDA-MB-231, with SF-539, in the experiment on KM12, with HL-60 and in the experiment on U-251 was > 100 µM (inactive) throughout.

Consider `N#CCN1c2ccccc2CCC1Cl` (stereo not drawn), for which the GI50 in the experiment on IGROV-1, in the experiment with NCI-H226, with NCI-H522, in the experiment with HT-29, in the experiment on EKVX and in the experiment with MDA-N was > 10 µM (inactive) in each case. The GI50 with OVCAR-5 is > 10 µM (inactive); in the experiment on OVCAR-4, > 10 µM (inactive); with UO-31, > 10 µM (inactive); in the experiment with SW-620 it was > 10 µM (inactive); in the experiment on UACC-257, > 10 µM (inactive); with HCT-15, greater than 10 µM. For the same compound, the GI50 in the experiment with MDA-MB-231, in the experiment with SF-539, with KM12, in the experiment on U-251 and with A549 was > 10 µM (inactive) throughout.

Regarding `CC1(C)OC[C@H](COCOP2(=O)Oc3ccc4ccccc4c3-c3c(ccc4ccccc34)O2)O1`, the GI50 with IGROV-1 is 23 µM (inactive); in the experiment on NCI-H226, 18.7 µM (inactive); in the experiment with HT-29 it was 16.4 µM (inactive); in the experiment on EKVX, > 10 µM (inactive); in the experiment with RXF 393, > 10 µM (inactive); in the experiment on MDA-N, 13.5 µM (inactive). Besides, the GI50 in the experiment with OVCAR-5 is 17.8 µM (inactive); in the experiment on UO-31, 18.3 µM (inactive); with SW-620, 15.3 µM (inactive); in the experiment with HCT-15, 15.3 µM; with MDA-MB-231, 15.7 µM (inactive); in the experiment on SF-539 it was 18.8 µM (inactive). Further, the GI50 was 15.5 µM (inactive) with KM12, 17.1 µM (inactive) in the experiment with HL-60, 18 µM (inactive) in the experiment on U-251 and 21.5 µM (inactive) with A549.

On to `COc1cccc(N(CN2C(=O)CCC2OC)C(C)=O)c1` (stereo not drawn), for which the GI50 with NCI-H226, with HT-29, in the experiment on SK-MEL-2, in the experiment with RXF 393, in the experiment with MDA-N and in the experiment with OVCAR-5 was > 100 µM (inactive) each time. For the same compound, the GI50 was > 100 µM (inactive) in the experiment with OVCAR-4; > 100 µM (inactive) with UO-31; > 100 µM (inactive) with SW-620; > 100 µM (inactive) in the experiment with UACC-257; greater than 100 µM with HCT-15; > 100 µM (inactive) in the experiment with MDA-MB-231. In addition, the GI50 is > 100 µM (inactive) with SF-539; > 100 µM (inactive) with KM12; 22.6 µM (inactive) in the experiment with HL-60; > 100 µM (inactive) in the experiment with U-251; > 100 µM (inactive) in the experiment with A549.

As to `COc1cc(S(=O)(=O)Nc2ccc(-c3csc(N4C(=O)C(Cl)C4c4cccc(Oc5ccccc5)c4)n3)cc2)ccc1Cl` (stereo not drawn), the GI50 in the experiment with IGROV-1 was 2.71 µM (inactive); in the experiment with NCI-H226 it was 18.8 µM (inactive); with NCI-H522, 1.69 µM (inactive); in the experiment on HT-29, 49.5 µM (inactive); in the experiment with SK-MEL-2, 31 µM (inactive); in the experiment on EKVX it was 20.7 µM (inactive). In addition, the GI50 was 3.13 µM (inactive) in the experiment with RXF 393; 22.3 µM (inactive) in the experiment on MDA-N; 38.5 µM (inactive) in the experiment on OVCAR-5; 4.91 µM (inactive) in the experiment with OVCAR-4; 21.2 µM (inactive) in the experiment with UO-31; 36.1 µM (inactive) in the experiment with SW-620. The GI50 is 39.6 µM (inactive) with UACC-257; greater than 100 µM in the experiment on HCT-15; 16.1 µM (inactive) with SF-539; 26.9 µM (inactive) with KM12; 20.5 µM (inactive) in the experiment on HL-60; > 100 µM (inactive) in the experiment on A549.

As to `COCc1cc2c(cc1/C(=C/[N+](=O)[O-])CS(=O)(=O)c1ccccc1)OCO2`, the GI50 with IGROV-1 is > 100 µM (inactive); in the experiment on NCI-H226 it was > 100 µM (inactive); in the experiment with NCI-H522 it was 43.6 µM (inactive); in the experiment on HT-29, > 100 µM (inactive); in the experiment on EKVX, > 100 µM (inactive); with RXF 393, > 100 µM (inactive). Moreover, the GI50 was > 100 µM (inactive) with MDA-N; > 100 µM (inactive) in the experiment on OVCAR-5; > 100 µM (inactive) with UO-31; > 100 µM (inactive) in the experiment on SW-620; > 100 µM (inactive) in the experiment with UACC-257; greater than 100 µM in the experiment on HCT-15. Also, the GI50 in the experiment on SF-539, in the experiment on HL-60, in the experiment on U-251 and in the experiment on A549 was > 100 µM (inactive) each time.

Take `COc1cc(=O)oc(/C=C/C=C/C=C/C(C)=C\C2(C)OC(C)C(C)(O)C2O)c1C` (stereo not drawn): the GI50 in the experiment on IGROV-1, with NCI-H226, in the experiment on HT-29, with SK-MEL-2, in the experiment with EKVX and with MDA-N was > 100 µM (inactive) each time. Further, the GI50 with OVCAR-5 is > 100 µM (inactive); in the experiment on UO-31, > 100 µM (inactive); with SW-620 it was > 100 µM (inactive); in the experiment on UACC-257, > 100 µM (inactive); with HCT-15, greater than 100 µM; with MDA-MB-231, > 100 µM (inactive). The GI50 in the experiment on SF-539 was > 100 µM (inactive); in the experiment on KM12 it was 87.9 µM (inactive); with HL-60 it was > 100 µM (inactive); in the experiment with U-251, > 100 µM (inactive); with A549, > 100 µM (inactive).

Turning to `O=c1c(Br)cc2c(-c3ccccc3)c3cc(Br)c(O)c(Br)c3oc-2c1Br`, the GI50 in the experiment on IGROV-1 was > 100 µM (inactive); with NCI-H226, > 100 µM (inactive); in the experiment on HT-29, 21.7 µM (inactive); in the experiment with EKVX it was > 100 µM (inactive); with RXF 393 it was > 100 µM (inactive); in the experiment with MDA-N it was > 100 µM (inactive). The GI50 in the experiment with OVCAR-5 is > 100 µM (inactive); in the experiment with OVCAR-4, 22.3 µM (inactive); in the experiment on UO-31, > 100 µM (inactive); in the experiment on SW-620, > 100 µM (inactive); with UACC-257, > 100 µM (inactive); in the experiment on HCT-15 it was 56 µM. Besides, the GI50 with MDA-MB-231 is > 100 µM (inactive); in the experiment with SF-539, 39.5 µM (inactive); in the experiment on KM12, > 100 µM (inactive); in the experiment on HL-60, 51.6 µM (inactive); in the experiment on U-251, > 100 µM (inactive); with A549, > 100 µM (inactive).

Consider `COC(=O)C1=C(CCCCO[Si](C)(C)C(C)(C)C)NC(=O)N2[C@H](CCOCc3ccccc3)CC[C@@H]12`, for which the GI50 in the experiment with NCI-H226 was > 100 µM (inactive); in the experiment on NCI-H522, 15.5 µM (inactive); in the experiment on SK-MEL-2 it was 75.3 µM (inactive); with EKVX, 31.5 µM (inactive); in the experiment on MDA-N, 55.3 µM (inactive); in the experiment on OVCAR-5, > 100 µM (inactive). The GI50 was > 100 µM (inactive) in the experiment with OVCAR-4; 43.9 µM (inactive) with UO-31; 24.7 µM (inactive) in the experiment with UACC-257; 40.6 µM with HCT-15; 44.9 µM (inactive) with MDA-MB-231; 33.7 µM (inactive) in the experiment with SF-539. The results for the GI50 in the experiment on KM12, in the experiment with U-251 and with A549 were 49.5 µM (inactive), 23.7 µM (inactive) and 26.7 µM (inactive), respectively.

With `CCCCCCCCCc1nn2c(Cc3ccccc3)nnc2s1`, the GI50 in the experiment on NCI-H522 was 14 µM (inactive); in the experiment on SK-MEL-2, 19.8 µM (inactive); in the experiment with EKVX, 15.5 µM (inactive); in the experiment on RXF 393, 18.5 µM (inactive); in the experiment on MDA-N it was 20.6 µM (inactive); in the experiment with OVCAR-5 it was 14.4 µM (inactive). For the same compound, the GI50 is 20 µM (inactive) with OVCAR-4; 13.1 µM (inactive) in the experiment on UO-31; 17.6 µM (inactive) in the experiment with SW-620; 23.5 µM (inactive) in the experiment with UACC-257; 19.5 µM in the experiment with HCT-15; 24.5 µM (inactive) with MDA-MB-231. Also, the GI50 with SF-539 was 18.1 µM (inactive); in the experiment with KM12 it was 25 µM (inactive); in the experiment on U-251 it was 18.7 µM (inactive); in the experiment with A549 it was 20.5 µM (inactive).

As to `CC1(C)CCC[C@]2(C)[C@@H]1CC[C@@]13O[C@@H]1C1=C(CO)C(=O)O[C@]14O[C@@H]4[C@@H]23`, the GI50 with IGROV-1 was 13.3 µM (inactive); with NCI-H226, 19 µM (inactive); with NCI-H522 it was 7.55 µM (inactive); in the experiment with HT-29 it was 12.4 µM (inactive); in the experiment on SK-MEL-2, 13.9 µM (inactive); in the experiment with EKVX it was 11.9 µM (inactive). The GI50 in the experiment on RXF 393 is 8.71 µM (inactive); with MDA-N, 5.78 µM (inactive); in the experiment with OVCAR-5 it was 15.7 µM (inactive); with OVCAR-4, 8.24 µM (inactive); in the experiment with UO-31, 6.05 µM (inactive); in the experiment with SW-620, 12.8 µM (inactive). For the same compound, the GI50 with UACC-257 is 14 µM (inactive); in the experiment on HCT-15, 14.5 µM; with MDA-MB-231, 15.7 µM (inactive); in the experiment on SF-539 it was 17.3 µM (inactive); in the experiment with KM12, 18 µM (inactive); with U-251 it was 13.8 µM (inactive). Further, the GI50 in the experiment with A549 was 7.98 µM (inactive).

These data come from ChEMBL document CHEMBL1201862, “PubChem BioAssay data set” (2004).
